ChEMBL document CHEMBL4049403, “Oligo-aspartic acid conjugates with benzo[c][2,6]naphthyridine-8-carboxylic acid scaffold as picomolar inhibitors of CK2” (Bioorg Med Chem, 2017)
Where a SMILES comes first, the peptide text is derived from it. The star is where a group is joined. X1 = O=C(O)c1ccc2c(c1)nc(OCCCCCCCCC(=O)*)c1ccncc12

Assays:
[1] = target: Dual specificity tyrosine-phosphorylation-regulated kinase 2 (Homo sapiens) (UniProt Q92630); assay: Inhibition of human DYRK2 assessed as residual activity at 1 uM in presence of 33P-ATP by filter-binding assay relative to control
[2] = target: Serine/threonine-protein kinase 24 (Homo sapiens) (UniProt Q9Y6E0); assay: Inhibition of human MST3 assessed as residual activity at 1 uM in presence of [33P]ATP by filter binding assay relative to control
[3] = target: Serine/threonine-protein kinase N2 (Homo sapiens) (UniProt Q16513); assay: Inhibition of human PRK2 assessed as residual activity at 1 uM in presence of [33P]ATP by filter binding assay relative to control
Sequence of Serine/threonine-protein kinase N2 (Homo sapiens) (Q16513 whole entry, looked up): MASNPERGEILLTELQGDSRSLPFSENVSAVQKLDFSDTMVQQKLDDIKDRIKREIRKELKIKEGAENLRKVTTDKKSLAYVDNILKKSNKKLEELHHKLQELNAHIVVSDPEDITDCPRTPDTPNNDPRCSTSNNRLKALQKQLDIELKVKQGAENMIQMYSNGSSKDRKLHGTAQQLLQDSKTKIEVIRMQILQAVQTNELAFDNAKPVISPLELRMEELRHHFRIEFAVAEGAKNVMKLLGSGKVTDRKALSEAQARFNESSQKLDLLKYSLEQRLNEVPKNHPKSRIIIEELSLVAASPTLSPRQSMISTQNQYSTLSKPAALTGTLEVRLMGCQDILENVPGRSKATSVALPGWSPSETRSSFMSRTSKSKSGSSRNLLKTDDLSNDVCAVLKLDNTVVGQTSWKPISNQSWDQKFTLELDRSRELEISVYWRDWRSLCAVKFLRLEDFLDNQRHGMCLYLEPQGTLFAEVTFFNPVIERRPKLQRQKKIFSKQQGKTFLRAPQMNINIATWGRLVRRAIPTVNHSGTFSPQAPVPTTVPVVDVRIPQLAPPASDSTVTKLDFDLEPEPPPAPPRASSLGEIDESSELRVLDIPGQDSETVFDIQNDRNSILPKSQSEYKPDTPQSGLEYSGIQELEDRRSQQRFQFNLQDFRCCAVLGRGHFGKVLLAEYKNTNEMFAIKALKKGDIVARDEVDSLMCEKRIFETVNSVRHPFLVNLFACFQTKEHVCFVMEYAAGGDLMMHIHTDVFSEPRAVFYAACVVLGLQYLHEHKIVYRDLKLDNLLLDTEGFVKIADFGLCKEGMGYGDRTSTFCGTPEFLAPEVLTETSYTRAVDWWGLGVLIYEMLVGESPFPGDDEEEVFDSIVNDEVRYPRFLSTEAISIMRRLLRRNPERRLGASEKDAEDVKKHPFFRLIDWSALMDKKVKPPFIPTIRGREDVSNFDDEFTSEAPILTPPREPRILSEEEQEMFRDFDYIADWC

[4] = target: NUAK family SNF1-like kinase 1 (Homo sapiens) (UniProt O60285); assay: Inhibition of human NUAK1 assessed as residual activity at 1 uM in presence of [33P]ATP by filter binding assay relative to control
[5] = target: Mitogen-activated protein kinase 12 (Homo sapiens) (UniProt P53778); assay: Inhibition of human P38g MAPK assessed as residual activity at 1 uM in presence of [33P]ATP by filter binding assay relative to control
[6] = target: Ribosomal protein S6 kinase beta-1 (Homo sapiens) (UniProt P23443); assay: Inhibition of human S6K1 assessed as residual activity at 1 uM in presence of 33P-ATP by filter-binding assay relative to control
Sequence of Ribosomal protein S6 kinase beta-1 (Homo sapiens) (P23443 whole entry, looked up): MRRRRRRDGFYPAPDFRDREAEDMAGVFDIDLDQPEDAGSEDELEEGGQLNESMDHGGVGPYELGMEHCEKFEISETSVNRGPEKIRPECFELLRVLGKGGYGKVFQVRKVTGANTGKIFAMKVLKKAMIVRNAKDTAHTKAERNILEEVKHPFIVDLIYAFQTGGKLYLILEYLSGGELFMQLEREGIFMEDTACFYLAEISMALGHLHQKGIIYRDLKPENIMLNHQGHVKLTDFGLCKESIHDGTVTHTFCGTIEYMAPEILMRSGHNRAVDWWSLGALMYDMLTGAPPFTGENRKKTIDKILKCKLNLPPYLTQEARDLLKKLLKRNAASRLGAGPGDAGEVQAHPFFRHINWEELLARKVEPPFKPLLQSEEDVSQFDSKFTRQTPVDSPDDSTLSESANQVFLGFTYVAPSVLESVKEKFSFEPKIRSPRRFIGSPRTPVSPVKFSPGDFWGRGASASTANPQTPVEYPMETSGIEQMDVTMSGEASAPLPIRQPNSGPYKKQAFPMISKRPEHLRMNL

[7] = target: Ephrin type-A receptor 2 (Homo sapiens) (UniProt P29317); assay: Inhibition of human EPHA2 assessed as residual activity at 1 uM in presence of [33P]ATP by filter binding assay relative to control
Sequence of Ephrin type-A receptor 2 (Homo sapiens) (P29317 whole entry): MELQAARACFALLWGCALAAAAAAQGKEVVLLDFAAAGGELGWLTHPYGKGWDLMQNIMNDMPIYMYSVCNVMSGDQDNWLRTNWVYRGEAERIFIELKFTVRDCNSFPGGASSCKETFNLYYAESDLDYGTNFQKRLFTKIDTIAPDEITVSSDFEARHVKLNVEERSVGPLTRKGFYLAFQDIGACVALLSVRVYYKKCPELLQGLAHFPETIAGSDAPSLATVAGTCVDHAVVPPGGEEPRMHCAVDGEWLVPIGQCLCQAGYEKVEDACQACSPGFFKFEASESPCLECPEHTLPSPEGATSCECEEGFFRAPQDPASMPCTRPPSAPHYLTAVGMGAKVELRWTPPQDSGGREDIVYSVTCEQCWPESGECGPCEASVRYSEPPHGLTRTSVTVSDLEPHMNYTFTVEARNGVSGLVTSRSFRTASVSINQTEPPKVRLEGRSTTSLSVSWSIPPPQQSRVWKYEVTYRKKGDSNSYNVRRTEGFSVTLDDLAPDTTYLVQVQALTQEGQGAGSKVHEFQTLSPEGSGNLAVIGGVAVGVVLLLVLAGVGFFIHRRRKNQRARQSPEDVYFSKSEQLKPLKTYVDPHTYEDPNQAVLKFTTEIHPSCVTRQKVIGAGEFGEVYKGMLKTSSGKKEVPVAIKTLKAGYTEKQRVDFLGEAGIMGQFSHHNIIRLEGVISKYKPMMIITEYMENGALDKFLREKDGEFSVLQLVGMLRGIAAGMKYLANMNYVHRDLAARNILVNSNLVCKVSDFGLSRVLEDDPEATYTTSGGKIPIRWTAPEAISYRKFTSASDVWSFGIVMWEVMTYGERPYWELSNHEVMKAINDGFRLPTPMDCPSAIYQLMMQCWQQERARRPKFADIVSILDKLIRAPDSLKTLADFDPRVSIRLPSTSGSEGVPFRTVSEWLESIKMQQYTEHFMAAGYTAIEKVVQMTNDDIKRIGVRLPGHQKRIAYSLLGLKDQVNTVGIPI

[8] = target: Receptor-interacting serine/threonine-protein kinase 2 (Homo sapiens) (UniProt O43353); assay: Inhibition of human RIPK2 assessed as residual activity at 1 uM in presence of 33P-ATP by filter-binding assay relative to control
[9] = species: Homo sapiens; assay: Inhibition of human PHK assessed as residual activity at 1 uM in presence of [33P]ATP by filter binding assay relative to control
[10] = target: Serine/threonine-protein kinase 3 (Homo sapiens) (UniProt Q13188); assay: Inhibition of human MST2 assessed as residual activity at 1 uM in presence of [33P]ATP by filter binding assay relative to control
[11] = target: Eukaryotic elongation factor 2 kinase (Homo sapiens) (UniProt O00418); assay: Inhibition of human EF2K assessed as residual activity at 1 uM in presence of [33P]ATP by filter binding assay relative to control
[12] = target: Dual specificity tyrosine-phosphorylation-regulated kinase 3 (Homo sapiens) (UniProt O43781); assay: Inhibition of human DYRK3 assessed as residual activity at 1 uM in presence of 33P-ATP by filter-binding assay relative to control
[13] = target: Protein kinase C alpha type (Homo sapiens) (UniProt P17252); assay: Inhibition of human PKCa assessed as residual activity at 1 uM in presence of [33P]ATP by filter binding assay relative to control
[14] = target: 3-phosphoinositide-dependent protein kinase 1 (Homo sapiens) (UniProt O15530); assay: Inhibition of human PDK1 assessed as residual activity at 1 uM in presence of [33P]ATP by filter binding assay relative to control
[15] = target: Dual specificity mitogen-activated protein kinase kinase 1 (Homo sapiens) (UniProt Q02750); assay: Inhibition of human MKK1 assessed as residual activity at 1 uM in presence of [33P]ATP by filter binding assay relative to control
[16] = target: MAP kinase-interacting serine/threonine-protein kinase 1 (Homo sapiens) (UniProt Q9BUB5); assay: Inhibition of human MNK1 assessed as residual activity at 1 uM in presence of [33P]ATP by filter binding assay relative to control
[17] = target: TGF-beta receptor type-1 (Homo sapiens) (UniProt P36897); assay: Inhibition of human TGFBR1 assessed as residual activity at 1 uM in presence of [33P]ATP by filter binding assay relative to control
[18] = target: Tyrosine-protein kinase BTK (Homo sapiens) (UniProt Q06187); assay: Inhibition of human BTK assessed as residual activity at 1 uM in presence of 33P-ATP by filter-binding assay relative to control
Sequence of Tyrosine-protein kinase BTK (Homo sapiens) (Q06187 whole entry): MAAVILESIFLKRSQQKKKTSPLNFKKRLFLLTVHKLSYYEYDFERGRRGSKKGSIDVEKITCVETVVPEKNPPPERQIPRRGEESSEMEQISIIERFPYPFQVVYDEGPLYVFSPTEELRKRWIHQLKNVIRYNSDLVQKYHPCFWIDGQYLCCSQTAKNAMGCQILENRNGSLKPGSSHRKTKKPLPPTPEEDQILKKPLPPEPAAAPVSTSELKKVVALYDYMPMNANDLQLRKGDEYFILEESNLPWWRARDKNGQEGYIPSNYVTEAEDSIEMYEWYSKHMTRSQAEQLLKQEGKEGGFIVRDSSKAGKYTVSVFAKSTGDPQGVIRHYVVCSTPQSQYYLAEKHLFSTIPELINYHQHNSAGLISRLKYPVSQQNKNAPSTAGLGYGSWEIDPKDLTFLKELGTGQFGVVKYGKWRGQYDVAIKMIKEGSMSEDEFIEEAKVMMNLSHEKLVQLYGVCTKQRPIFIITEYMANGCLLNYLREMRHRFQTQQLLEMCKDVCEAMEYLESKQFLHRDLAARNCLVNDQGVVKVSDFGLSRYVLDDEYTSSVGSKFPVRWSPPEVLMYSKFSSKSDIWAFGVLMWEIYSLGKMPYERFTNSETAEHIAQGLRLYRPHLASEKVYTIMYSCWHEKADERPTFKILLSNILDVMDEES

[19] = target: RAC-beta serine/threonine-protein kinase (Homo sapiens) (UniProt P31751); assay: Inhibition of human PKBb assessed as residual activity at 1 uM in presence of [33P]ATP by filter binding assay relative to control
[20] = target: Serine/threonine-protein kinase 33 (Homo sapiens) (UniProt Q9BYT3); assay: Inhibition of human STK33 assessed as residual activity at 1 uM in presence of [33P]ATP by filter binding assay relative to control
Sequence of Serine/threonine-protein kinase 33 (Homo sapiens) (Q9BYT3 whole entry, looked up): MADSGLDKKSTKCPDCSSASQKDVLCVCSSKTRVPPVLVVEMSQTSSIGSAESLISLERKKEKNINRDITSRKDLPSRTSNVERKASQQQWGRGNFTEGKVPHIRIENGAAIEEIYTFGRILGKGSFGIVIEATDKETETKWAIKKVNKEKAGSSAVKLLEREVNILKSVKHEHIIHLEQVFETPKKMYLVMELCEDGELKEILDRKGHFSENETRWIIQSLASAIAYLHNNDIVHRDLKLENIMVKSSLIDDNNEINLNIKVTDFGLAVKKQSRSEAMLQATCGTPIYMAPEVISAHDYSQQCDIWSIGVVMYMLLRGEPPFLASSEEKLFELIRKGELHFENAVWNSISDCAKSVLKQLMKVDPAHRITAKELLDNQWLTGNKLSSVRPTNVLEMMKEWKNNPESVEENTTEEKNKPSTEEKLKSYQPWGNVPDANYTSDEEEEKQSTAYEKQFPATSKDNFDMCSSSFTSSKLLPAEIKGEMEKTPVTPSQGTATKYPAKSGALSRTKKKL

[21] = species: Homo sapiens; assay: Inhibition of human VEGFR assessed as residual activity at 1 uM in presence of 33P-ATP by filter-binding assay relative to control
[22] = target: Rho-associated protein kinase 2 (Homo sapiens) (UniProt O75116); assay: Inhibition of human ROCK2 assessed as residual activity at 1 uM in presence of [33P]ATP by filter binding assay relative to control
[23] = target: Discoidin domain-containing receptor 2 (Homo sapiens) (UniProt Q16832); assay: Inhibition of human DDR2 assessed as residual activity at 1 uM in presence of [33P]ATP by filter binding assay relative to control
Sequence of Discoidin domain-containing receptor 2 (Homo sapiens) (Q16832 whole entry, the tested form may be a part): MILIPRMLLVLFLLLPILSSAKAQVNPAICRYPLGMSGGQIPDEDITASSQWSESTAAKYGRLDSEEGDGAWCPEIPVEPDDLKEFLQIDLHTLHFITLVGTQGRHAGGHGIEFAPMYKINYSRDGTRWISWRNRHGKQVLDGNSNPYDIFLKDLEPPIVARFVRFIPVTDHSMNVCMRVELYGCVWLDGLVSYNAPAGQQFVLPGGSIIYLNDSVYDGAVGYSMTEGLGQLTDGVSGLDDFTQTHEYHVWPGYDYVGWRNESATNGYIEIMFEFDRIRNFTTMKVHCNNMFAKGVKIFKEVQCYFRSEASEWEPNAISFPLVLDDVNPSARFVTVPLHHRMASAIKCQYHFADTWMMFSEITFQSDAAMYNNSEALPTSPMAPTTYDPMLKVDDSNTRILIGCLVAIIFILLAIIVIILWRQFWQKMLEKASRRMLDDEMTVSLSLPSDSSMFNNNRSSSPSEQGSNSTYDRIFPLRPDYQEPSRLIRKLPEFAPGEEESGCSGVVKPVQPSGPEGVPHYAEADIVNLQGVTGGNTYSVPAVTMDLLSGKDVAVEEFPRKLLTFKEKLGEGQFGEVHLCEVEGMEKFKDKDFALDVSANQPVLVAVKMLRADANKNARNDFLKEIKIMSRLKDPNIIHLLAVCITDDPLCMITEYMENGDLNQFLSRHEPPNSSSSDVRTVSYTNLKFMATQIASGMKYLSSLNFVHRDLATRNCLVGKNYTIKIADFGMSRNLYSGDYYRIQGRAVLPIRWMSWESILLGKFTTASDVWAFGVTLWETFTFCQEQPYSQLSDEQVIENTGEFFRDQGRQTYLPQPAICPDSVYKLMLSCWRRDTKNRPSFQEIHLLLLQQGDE

[24] = target: Calcium/calmodulin-dependent protein kinase kinase 2 (Homo sapiens) (UniProt Q96RR4); assay: Inhibition of human CAMKKb assessed as residual activity at 1 uM in presence of [33P]ATP by filter binding assay relative to control
[25] = target: Serine/threonine-protein kinase PAK 2 (Homo sapiens) (UniProt Q13177); assay: Inhibition of human PAK2 assessed as residual activity at 1 uM in presence of [33P]ATP by filter binding assay relative to control
[26] = target: Fibroblast growth factor receptor 1 (Homo sapiens) (UniProt P11362); assay: Inhibition of human FGFR1 assessed as residual activity at 1 uM in presence of [33P]ATP by filter binding assay relative to control
[27] = target: Dual specificity mitogen-activated protein kinase kinase 6 (Homo sapiens) (UniProt P52564); assay: Inhibition of human MKK6 assessed as residual activity at 1 uM in presence of [33P]ATP by filter binding assay relative to control
Sequence of Dual specificity mitogen-activated protein kinase kinase 6 (Homo sapiens) (P52564 whole entry): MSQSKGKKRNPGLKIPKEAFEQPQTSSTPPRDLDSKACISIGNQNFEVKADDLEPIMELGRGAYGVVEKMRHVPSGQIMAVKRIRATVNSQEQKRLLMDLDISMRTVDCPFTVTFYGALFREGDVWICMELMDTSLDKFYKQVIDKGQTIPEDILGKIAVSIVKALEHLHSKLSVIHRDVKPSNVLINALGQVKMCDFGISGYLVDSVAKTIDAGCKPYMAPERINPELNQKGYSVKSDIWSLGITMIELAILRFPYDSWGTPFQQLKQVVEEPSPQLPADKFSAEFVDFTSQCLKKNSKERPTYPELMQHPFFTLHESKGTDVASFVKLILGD

[28] = target: Protein-tyrosine kinase 6 (Homo sapiens) (UniProt Q13882); assay: Inhibition of human BRK assessed as residual activity at 1 uM in presence of 33P-ATP by filter-binding assay relative to control
[29] = target: Dual specificity mitogen-activated protein kinase kinase 2 (Homo sapiens) (UniProt P36507); assay: Inhibition of human MKK2 assessed as residual activity at 1 uM in presence of [33P]ATP by filter binding assay relative to control
[30] = target: Insulin-like growth factor 1 receptor (Homo sapiens) (UniProt P08069); assay: Inhibition of human IGF-1R assessed as residual activity at 1 uM in presence of [33P]ATP by filter binding assay relative to control

## NCCCC[C@H](NC(=O)[C@H](CC(=O)O)NC(=O)[C@H](CC(=O)O)NC(=O)[C@H](CC(=O)O)NC(=O)[C@H](CC(=O)O)NC(=O)[C@H](CC(=O)O)NC(=O)[C@H](CC(=O)O)NC(=O)CCCCCCCCOc1nc2cc(C(=O)O)ccc2c2cnccc12)C(=O)O (X1-DDDDDDK-OH)
[1]
  Activity: 5%
[2]
  Activity: 93%
[3]
  Activity: 90%
[4]
  Activity: 75%
[5]
  Activity: 107%
[6]
  Activity: 31%
[7]
  Activity: 87%
[8]
  Activity: 39%
[9]
  Activity: 97%
[10]
  Activity: 92%
[11]
  Activity: 100%
[12]
  Activity: 4%
[13]
  Activity: 93%
[14]
  Activity: 84%
[15]
  Activity: 86%
[16]
  Activity: 67%
[17]
  Activity: 85%
[18]
  Activity: 62%
[19]
  Activity: 100%
[20]
  Activity: 83%
[21]
  Activity: 63%
[22]
  Activity: 90%
[23]
  Activity: 117%
[24]
  Activity: 81%
[25]
  Activity: 97%
[26]
  Activity: 92%
[27]
  Activity: 74%
[28]
  Activity: 51%
[29]
  Activity: 88%
[30]
  Activity: 79%
